Values joined by “and” are separate entries in the source; they are usually repeats but may differ in a detail not shown here. Equal entries are not always repeated. Where two headings read alike, the source gives them in different places.

These results are taken from article PMC6017976, “Enzyme Kinetics and Molecular Docking Studies on Cytochrome 2B6, 2C19, 2E1, and 3A4 Activities by Sauchinone” (Molecules : A Journal of Synthetic Chemistry and Natural …, 2018).

The target in data set [1] is T1, CYP2C19 (Homo sapiens, UniProt P33261).
T1 construct: pooled human liver microsomes from a mixed pool of 50 donors; tissue BD Gentest Co. 452156; host or cells: human liver microsomes, pool of 50 donors
T1 sequence (P33261 whole entry): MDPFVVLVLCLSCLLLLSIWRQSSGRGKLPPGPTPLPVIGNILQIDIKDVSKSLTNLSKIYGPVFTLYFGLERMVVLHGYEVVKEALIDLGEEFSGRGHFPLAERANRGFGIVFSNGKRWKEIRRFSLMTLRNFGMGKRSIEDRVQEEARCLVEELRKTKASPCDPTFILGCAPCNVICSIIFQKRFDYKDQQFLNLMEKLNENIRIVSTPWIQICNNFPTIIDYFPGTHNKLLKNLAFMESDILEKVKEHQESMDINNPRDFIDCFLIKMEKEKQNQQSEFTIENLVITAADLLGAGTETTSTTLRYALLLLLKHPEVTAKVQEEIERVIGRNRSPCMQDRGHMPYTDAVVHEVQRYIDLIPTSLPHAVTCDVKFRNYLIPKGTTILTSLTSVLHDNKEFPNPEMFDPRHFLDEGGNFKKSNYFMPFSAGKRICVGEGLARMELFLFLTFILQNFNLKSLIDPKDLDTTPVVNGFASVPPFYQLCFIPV
Put plainly: Time-dependent inhibition (TDI) IC50 shift assay on CYP2C19 in HLMs. The class given is in vitro ADME. Particulars: for IC50: HLMs, 10 min incubation.

The target in the next data set is T2, CYP2B6 (Homo sapiens, UniProt P20813).
T2 construct: pooled human liver microsomes from a mixed pool of 50 donors; tissue BD Gentest Co. 452156; host or cells: human liver microsomes, pool of 50 donors
T2 sequence (P20813 1-491): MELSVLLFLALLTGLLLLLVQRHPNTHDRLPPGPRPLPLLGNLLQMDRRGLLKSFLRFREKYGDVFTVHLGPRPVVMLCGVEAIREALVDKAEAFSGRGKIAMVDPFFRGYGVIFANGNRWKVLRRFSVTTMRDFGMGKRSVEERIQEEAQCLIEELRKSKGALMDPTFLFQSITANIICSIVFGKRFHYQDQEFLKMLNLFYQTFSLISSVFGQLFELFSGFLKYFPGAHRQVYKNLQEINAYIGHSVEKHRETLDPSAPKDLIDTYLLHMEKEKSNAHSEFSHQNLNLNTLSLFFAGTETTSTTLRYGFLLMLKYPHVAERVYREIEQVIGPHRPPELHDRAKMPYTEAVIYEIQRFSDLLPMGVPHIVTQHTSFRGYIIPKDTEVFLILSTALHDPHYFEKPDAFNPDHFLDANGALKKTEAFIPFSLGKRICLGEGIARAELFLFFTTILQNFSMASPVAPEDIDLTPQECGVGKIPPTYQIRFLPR
Put plainly: Time-dependent inhibition (TDI) IC50 shift assay on CYP2B6 in HLMs. The class given is in vitro ADME. Particulars: for IC50: HLMs, 10 min incubation.

The target in the next data set is T3, CYP1A2 (Homo sapiens, UniProt P05177).
T3 sequence (P05177 1-516): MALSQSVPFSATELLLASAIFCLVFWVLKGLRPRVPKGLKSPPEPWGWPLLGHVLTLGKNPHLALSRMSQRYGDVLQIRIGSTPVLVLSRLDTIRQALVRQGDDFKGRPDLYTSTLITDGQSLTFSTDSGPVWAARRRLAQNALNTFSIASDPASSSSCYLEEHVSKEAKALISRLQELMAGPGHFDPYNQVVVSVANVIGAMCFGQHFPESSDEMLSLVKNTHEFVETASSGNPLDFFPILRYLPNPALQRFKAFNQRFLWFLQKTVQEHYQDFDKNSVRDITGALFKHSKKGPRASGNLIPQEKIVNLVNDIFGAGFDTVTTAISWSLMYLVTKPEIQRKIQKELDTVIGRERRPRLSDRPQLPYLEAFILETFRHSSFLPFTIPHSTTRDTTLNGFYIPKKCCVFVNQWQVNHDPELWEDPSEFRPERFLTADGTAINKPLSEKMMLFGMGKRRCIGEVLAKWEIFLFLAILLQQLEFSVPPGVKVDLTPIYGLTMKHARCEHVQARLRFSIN
Put plainly: Reversible inhibition (RI) of CYP1A2 activity in HLMs (cocktail probe assay).

The target in data set [2] is T4, CYP2E1 (Homo sapiens, UniProt P05181).
T4 construct: pooled human liver microsomes from a mixed pool of 50 donors; tissue BD Gentest Co. 452156; host or cells: human liver microsomes, pool of 50 donors
T4 sequence (P05181 whole entry): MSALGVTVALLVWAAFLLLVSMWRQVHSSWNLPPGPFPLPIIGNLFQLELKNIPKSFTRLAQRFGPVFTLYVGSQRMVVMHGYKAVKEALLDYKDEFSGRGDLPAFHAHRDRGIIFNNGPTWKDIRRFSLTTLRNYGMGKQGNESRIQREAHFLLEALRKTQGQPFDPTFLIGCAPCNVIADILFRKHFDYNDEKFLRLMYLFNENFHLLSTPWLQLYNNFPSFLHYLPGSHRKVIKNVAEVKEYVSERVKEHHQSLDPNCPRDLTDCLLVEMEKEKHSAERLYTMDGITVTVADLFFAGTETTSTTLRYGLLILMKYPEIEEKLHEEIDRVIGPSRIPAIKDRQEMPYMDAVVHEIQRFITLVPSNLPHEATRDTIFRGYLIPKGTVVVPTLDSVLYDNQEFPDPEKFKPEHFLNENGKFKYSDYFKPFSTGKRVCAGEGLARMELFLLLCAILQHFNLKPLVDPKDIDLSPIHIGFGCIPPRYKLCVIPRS
Put plainly: Reversible inhibition (RI) of CYP2E1 activity in HLMs (cocktail probe assay). The data set is classed as in vitro ADME. Particulars: chlorzoxazone hydroxylation, 50 μM chlorzoxazone, 30 min incubation.

The target of the next data set is T5, CYP3A4 (Homo sapiens, UniProt P08684).
T5 construct: pooled human liver microsomes from a mixed pool of 50 donors; tissue BD Gentest Co. 452156; host or cells: human liver microsomes, pool of 50 donors
T5 sequence (P08684 whole entry): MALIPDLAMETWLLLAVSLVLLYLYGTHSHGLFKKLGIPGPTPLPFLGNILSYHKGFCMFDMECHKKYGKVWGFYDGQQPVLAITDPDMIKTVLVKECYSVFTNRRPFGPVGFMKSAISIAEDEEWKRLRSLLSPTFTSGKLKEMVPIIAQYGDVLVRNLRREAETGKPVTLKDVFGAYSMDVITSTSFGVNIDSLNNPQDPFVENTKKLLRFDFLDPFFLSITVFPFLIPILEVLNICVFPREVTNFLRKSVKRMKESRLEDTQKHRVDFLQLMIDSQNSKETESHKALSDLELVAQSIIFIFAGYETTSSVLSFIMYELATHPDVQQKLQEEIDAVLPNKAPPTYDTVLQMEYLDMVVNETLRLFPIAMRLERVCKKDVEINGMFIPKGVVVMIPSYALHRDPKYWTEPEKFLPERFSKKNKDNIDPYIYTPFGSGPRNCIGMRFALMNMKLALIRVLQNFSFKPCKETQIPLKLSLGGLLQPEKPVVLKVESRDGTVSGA
Description: Enzyme kinetic assay (Dixon plot, Ki) for CYP3A4 in HLMs. The data set is classed as in vitro ADME. As for the experimental part: Based on IC50 values, the Kis of sauchinone for CYP2B6, 2C19, 2E1, and 3A4 were determined. Different concentrations (20, 50, and 200 μM) of sauchinone were used. Other procedures were similar to those mentioned above regarding the reversible inhibitory effects of sauchinone. The inhibitory characteristics of sauchinone were initially estimated by nonlinear least squares regression analysis. Its Ki values were determined by Dixon plots.

For a further data set, the target named is T6, CYP2A6 (Homo sapiens, UniProt P11509).
T6 sequence (P11509 1-494): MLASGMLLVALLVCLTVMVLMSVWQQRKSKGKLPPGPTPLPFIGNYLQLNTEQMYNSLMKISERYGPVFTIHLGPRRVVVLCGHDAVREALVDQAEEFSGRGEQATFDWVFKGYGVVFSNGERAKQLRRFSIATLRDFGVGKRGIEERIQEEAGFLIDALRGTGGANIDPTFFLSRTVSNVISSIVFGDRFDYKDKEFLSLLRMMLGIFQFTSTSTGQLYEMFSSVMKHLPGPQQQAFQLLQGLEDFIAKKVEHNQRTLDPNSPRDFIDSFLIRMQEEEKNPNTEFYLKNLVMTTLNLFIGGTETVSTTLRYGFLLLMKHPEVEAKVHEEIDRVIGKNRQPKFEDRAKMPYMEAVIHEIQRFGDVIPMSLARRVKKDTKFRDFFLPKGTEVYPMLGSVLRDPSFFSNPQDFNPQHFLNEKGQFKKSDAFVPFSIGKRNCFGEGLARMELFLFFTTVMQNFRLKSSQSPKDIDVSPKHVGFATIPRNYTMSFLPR
Description: Time-dependent inhibition (TDI) IC50 shift assay on CYP2A6 in HLMs. The data set is classed as in vitro ADME. Also on record: pooled human liver microsomes from a mixed pool of 50 donors; tissue BD Gentest Co. 452156; host or cells: human liver microsomes, pool of 50 donors. The settings on record: 10 min incubation.

In data set [3] the target is T7, CYP2D6 (Homo sapiens, UniProt P10635).
T7 construct: pooled human liver microsomes from a mixed pool of 50 donors; tissue BD Gentest Co. 452156; host or cells: human liver microsomes, pool of 50 donors
T7 sequence (P10635 whole entry): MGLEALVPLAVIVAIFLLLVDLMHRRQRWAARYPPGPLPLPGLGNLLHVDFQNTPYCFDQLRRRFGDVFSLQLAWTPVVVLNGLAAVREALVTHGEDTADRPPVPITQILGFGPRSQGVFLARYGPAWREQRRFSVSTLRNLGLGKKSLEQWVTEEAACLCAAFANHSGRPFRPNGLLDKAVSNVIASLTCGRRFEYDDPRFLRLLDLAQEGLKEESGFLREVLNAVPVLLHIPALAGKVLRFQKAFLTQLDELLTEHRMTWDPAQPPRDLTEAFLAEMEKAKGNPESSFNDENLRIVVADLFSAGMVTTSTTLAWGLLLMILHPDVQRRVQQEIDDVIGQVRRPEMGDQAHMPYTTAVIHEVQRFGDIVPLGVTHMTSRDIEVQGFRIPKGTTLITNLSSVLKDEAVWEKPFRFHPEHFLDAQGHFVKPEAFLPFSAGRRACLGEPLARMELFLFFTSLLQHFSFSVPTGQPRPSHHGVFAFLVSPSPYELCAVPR
Description: Reversible inhibition (RI) of CYP2D6 activity in HLMs (cocktail probe assay). Particulars: 5 μM dextromethorphan, 30 min incubation. The data set is classed as in vitro ADME.

Data set [4] deals with T1, CYP2C19. Description: Reversible inhibition (RI) of CYP2C19 activity in HLMs (cocktail probe assay). The settings on record: S-mephenytoin hydroxylation, 100 μM S-mephenytoin, 30 min incubation. The data set is classed as in vitro ADME.
Data set [5] deals with T4, CYP2E1. Description: Time-dependent inhibition (TDI) IC50 shift assay on CYP2E1 in HLMs. The settings on record: for IC50: HLMs, 10 min incubation. The data set is classed as in vitro ADME.
The target in data set [6] is T7, CYP2D6. Description: Time-dependent inhibition (TDI) IC50 shift assay on CYP2D6 in HLMs. The class given is in vitro ADME.

With `C[C@@H]1[C@H]2c3cc4c(cc3O[C@@]35OCOC3=CC(=O)[C@H](C[C@H]1C)[C@@H]25)OCO4` [Sauchinone], the IC50 on CYP2C19 [1] (0 min pre-incubation with NADPH, read-out: IC50 on CYP2C19, 0 min inactivation incubation (TDI)) was 28.5 ± 0.267 µM; at CYP2C19 [1] (IC50 on CYP2C19, 30 min inactivation incubation (TDI), 30 min pre-incubation with NADPH), 19.4 ± 2.92 µM; at CYP2B6 (0 min pre-incubation with NADPH, read-out: IC50 on CYP2B6, 0 min inactivation incubation (TDI)), 36.4 ± 27 µM; at CYP2B6 (IC50 on CYP2B6, 30 min inactivation incubation (TDI), 30 min pre-incubation with NADPH), 3.93 ± 5.72 µM; at CYP1A2, above 300 µM; against CYP2E1 [2], 35.4 µM and 35.8 µM. Besides, the 50% inhibitory concentration (IC50) was above 300 µM at CYP2A6 (0 min pre-incubation with NADPH, read-out: IC50 on CYP2A6, 0 min inactivation incubation (TDI)); above 300 µM at CYP2A6 (IC50 on CYP2A6, 30 min inactivation incubation (TDI), 30 min pre-incubation with NADPH); above 300 µM against CYP2D6 [3]; 3.6 ± 2.54 µM against CYP2C19 [4]; 105 ± 57 µM at CYP2E1 [5] (0 min pre-incubation with NADPH, read-out: IC50 on CYP2E1, 0 min inactivation incubation (TDI)); 5.04 ± 1.91 µM at CYP2E1 [5] (IC50 on CYP2E1, 30 min inactivation incubation (TDI), 30 min pre-incubation with NADPH). Besides, the IC50 is above 300 µM on CYP2D6 [6] (0 min pre-incubation with NADPH, 10 min incubation, read-out: IC50 on CYP2D6, 0 min inactivation incubation (TDI)) and above 300 µM on CYP2D6 [6] (read-out: IC50 on CYP2D6, 30 min inactivation incubation (TDI), 30 min pre-incubation with NADPH, 10 min incubation). Besides, the IC50 shift on CYP2C19 [1] (human, human liver microsomes, pH 7.4) is 1.47. Further, the IC50 shift at 10 min worked out at 9.28 at CYP2B6 (human, human liver microsomes, pH 7.4, probe bupropion (substrate cocktail set)) and 20.9 at CYP2E1 [5] (human, human liver microsomes, pH 7.4, probe chlorzoxazone (substrate cocktail set)). In addition, the Ki at CYP3A4 (sauchinone 20, 50, 200 μM, read-out: Apparent inhibition constant (Ki) for CYP3A4) came out at 6.84 µM. Moreover, at CYP3A4 (visual inspection), the “Type of reversible inhibition of CYP3A4 (Dixon plot model)” value was “noncompetitive”.
